Data taken from patent EP4778922A1, “BICYCLIC COMPOUND, AND PREPARATION METHOD THEREFOR AND PHARMACEUTICAL USE THEREOF” (Shanghai Jeyou Pharmaceutical Co., Ltd., priority 2023, dated 2025).
Read-outs that look alike come from different tables or passages of the source.

Key:
22RV1 cells = assay: Cell proliferation inhibition assay in 22RV1 cells (CellTiter-Glo, 7 days); type: cell-based, human; details: Homo sapiens, 22Rv1, 168 h
In short: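 22RV1 cells received compound alone; LNCaP cells were stimulated with 0.2 nM DHT added 1 h after compound. Seeding was 3000 cells/well.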

CYP2C9 = biological target: T1, CYP2C9 (Homo sapiens, UniProt P11712); assay: CYP inhibition assay in human liver microsomes; type: in vitro ADME; details: human liver microsomes, NADPH; read-out: CYPs 2C9 (IC50)
T1 construct: co-incubated with human liver microsomes; from tissue; host or cells: human liver microsomes
T1 sequence (P11712 whole entry): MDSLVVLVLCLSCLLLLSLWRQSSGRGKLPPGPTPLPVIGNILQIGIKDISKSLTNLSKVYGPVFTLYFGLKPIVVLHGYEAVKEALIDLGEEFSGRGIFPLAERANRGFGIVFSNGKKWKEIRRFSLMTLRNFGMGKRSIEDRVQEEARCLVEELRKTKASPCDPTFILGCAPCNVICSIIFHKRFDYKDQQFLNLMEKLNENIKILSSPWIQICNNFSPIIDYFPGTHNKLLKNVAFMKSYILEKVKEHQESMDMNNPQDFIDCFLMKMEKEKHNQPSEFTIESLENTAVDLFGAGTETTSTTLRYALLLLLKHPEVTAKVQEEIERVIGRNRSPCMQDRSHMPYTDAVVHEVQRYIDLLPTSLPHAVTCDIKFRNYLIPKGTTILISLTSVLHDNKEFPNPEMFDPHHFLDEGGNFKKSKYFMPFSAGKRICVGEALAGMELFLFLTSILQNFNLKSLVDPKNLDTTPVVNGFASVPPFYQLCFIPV
Method: (§1) Test Example 3: CYP Inhibition Assay
(§2) An in vitro assay system was used to evaluate the effects of the compounds on the activities of several human liver microsomal cytochrome P450 (CYP) isozymes (CYP1A2, CYP2C9, CYP2D6, CYP3A4 (testosterone/midazolam), CYP2C19, and CYP2C8). Specific probe substrates for CYP450 isozymes were co-incubated with human liver microsomes and the compound at various concentrations (0, 0.0300, 0.100, 0.300, 1.00, 3.00, 10.0 µM). The reaction was initiated by adding the coenzyme NADPH. After the reaction was completed, the samples were processed, and the metabolites generated from the probe substrates were detected by liquid chromatography-tandem mass spectrometry (LC-MS/MS). Based on the resulting dose-response curves, the IC50 values of the test compounds for the probe substrate reactions catalyzed by each CYP isozyme were calculated.

CYP2C19 = biological target: T2, CYP2C19 (Homo sapiens, UniProt P33261); assay: CYP inhibition assay in human liver microsomes; type: in vitro ADME; details: human liver microsomes, NADPH; read-out: CYPs 2C19 (IC50)
T2 construct: co-incubated with human liver microsomes; from tissue; host or cells: human liver microsomes
T2 sequence (P33261 whole entry): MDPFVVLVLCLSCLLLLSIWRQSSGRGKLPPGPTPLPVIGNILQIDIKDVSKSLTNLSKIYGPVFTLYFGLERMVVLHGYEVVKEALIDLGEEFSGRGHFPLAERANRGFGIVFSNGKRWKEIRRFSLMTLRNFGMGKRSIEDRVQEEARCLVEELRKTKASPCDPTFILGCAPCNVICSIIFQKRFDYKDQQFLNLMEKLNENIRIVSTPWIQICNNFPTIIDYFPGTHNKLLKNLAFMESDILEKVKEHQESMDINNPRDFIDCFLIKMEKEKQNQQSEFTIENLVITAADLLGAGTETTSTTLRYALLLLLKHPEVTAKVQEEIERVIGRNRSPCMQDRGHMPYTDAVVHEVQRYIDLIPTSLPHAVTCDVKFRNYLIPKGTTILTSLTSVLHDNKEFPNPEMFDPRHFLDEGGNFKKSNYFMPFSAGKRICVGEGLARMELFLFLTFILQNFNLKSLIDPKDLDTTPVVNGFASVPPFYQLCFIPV
Method: as §1, §2

CYP2C8 = biological target: T3, CYP2C8 (Homo sapiens, UniProt P10632); assay: CYP inhibition assay in human liver microsomes; type: in vitro ADME; details: human liver microsomes, NADPH; read-out: CYPs 2C8 (IC50)
T3 construct: co-incubated with human liver microsomes; from tissue; host or cells: human liver microsomes
T3 sequence (P10632 1-490): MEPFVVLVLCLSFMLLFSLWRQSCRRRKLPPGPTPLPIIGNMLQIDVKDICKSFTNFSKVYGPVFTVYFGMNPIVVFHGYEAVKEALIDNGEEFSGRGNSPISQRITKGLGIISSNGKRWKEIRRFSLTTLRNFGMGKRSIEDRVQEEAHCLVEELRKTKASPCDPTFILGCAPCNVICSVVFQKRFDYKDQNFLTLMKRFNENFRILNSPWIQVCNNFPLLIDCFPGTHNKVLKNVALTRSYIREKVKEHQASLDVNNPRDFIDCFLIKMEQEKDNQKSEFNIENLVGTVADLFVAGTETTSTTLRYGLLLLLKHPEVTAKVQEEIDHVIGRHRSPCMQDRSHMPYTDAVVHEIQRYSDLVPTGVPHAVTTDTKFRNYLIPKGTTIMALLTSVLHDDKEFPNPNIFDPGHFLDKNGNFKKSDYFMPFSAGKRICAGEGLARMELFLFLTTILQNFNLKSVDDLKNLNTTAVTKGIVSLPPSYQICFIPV
Method: as §1, §2

[1] = biological target: T4, CYP3A4 (testosterone/midazolam) (Homo sapiens, UniProt P08684); assay: CYP inhibition assay in human liver microsomes; type: in vitro ADME
T4 construct: co-incubated with human liver microsomes; from tissue; host or cells: human liver microsomes
T4 sequence (P08684 whole entry): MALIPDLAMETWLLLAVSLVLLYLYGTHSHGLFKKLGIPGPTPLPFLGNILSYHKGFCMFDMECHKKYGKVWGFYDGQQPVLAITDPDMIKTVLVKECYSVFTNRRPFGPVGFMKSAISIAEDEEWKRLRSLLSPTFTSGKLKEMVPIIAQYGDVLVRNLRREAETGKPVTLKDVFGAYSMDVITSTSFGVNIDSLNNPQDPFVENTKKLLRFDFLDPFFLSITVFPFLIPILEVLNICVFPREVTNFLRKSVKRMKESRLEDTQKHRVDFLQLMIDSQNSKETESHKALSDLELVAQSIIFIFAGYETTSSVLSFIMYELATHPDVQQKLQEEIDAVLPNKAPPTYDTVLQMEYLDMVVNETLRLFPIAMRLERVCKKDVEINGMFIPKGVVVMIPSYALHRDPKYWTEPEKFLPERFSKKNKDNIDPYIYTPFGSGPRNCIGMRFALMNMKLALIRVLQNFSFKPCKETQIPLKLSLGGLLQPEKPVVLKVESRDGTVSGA
Method: as §1, §2

[2] = Mouse pharmacokinetic test; type: in vivo, ICR mice; details: plasma; for Tmax: read-out: Tmax
In short: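 Male naive ICR mice (25–30 g, n=3 per route) received a single intravenous or oral dose, with feeding resumed 4 h post-dose. Blood was centrifuged at 4°C, and plasma was stored at -80°C until analysis.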

LNCaP cells = assay: Cell proliferation inhibition assay in LNCaP cells (0.2 nM DHT, CellTiter-Glo, 7 days); type: cell-based, human; details: Homo sapiens, LNCaP, 168 h
Method: • 1. The human prostate cancer cell lines 22RV1 and LNCaP were purchased from ATCC. […] The cell concentration was adjusted to an appropriate concentration (determined based on the results of cell density optimization experiments), and the cells were seeded into a 96-well plate. A 100 µL cell suspension was added, resulting in 3000 cells per well. […] On the second day, for 22Rv1 cells, test compounds at different concentrations were added, and the cells were incubated at 37°C in a 5% CO2 incubator for 7 days; for LNCaP cells, test compounds at different concentrations were added first, and after 1 hour of treatment, 0.2 nM DHT was added. The cells were then incubated at 37°C in a 5% CO2 incubator for 7 days. • 4. After the incubation period, a volume of CellTiter-Glo detection reagent equal to the volume of the culture medium was added to each well. The plate was shaken and mixed thoroughly for 5 minutes, then incubated at room temperature for 10 minutes. Readings were taken using a PerkinElmer EnVision microplate reader. • 5.
The IC50 curve was fitted and the IC50 value was calculated using the software GraphPad Prism 8 with the calculation formula XY-analysis/Nonlinear regression (curve fit)/Dose response-Inhibition/log (inhibitor) vs. response-Variable slope (four parameters).

[3] = probe substrate midazolam, read-out: CYPs 3A4 (Midazolam) (IC50)
[4] = probe substrate testosterone, read-out: CYPs 3A4 (Testosterone) (IC50)

Structure (SMILES) | IC50 (22RV1 cells) [µM] | IC50 (CYP2C9) [µM] | IC50 (CYP2C19) [µM] | IC50 (CYP2C8) [µM] | IC50 [1, 3] [µM] | IC50 [1, 4] [µM] | AUC(0-inf) ([2]; po, 30 mg/kg, PO-30mpk) [µg·h/mL] | Cmax ([2]; po, 30 mg/kg, PO-30mpk) [ng/mL] | half-life ([2]; po, 30 mg/kg, PO-30mpk) [h] | Tmax ([2]; po, 30 mg/kg, PO-30mpk) [h] | IC50 (LNCaP cells) [µM] | C0 ([2]; 0.5 mg/kg, IV-0.5mpk) [ng/mL] | clearance ([2]; 0.5 mg/kg, IV-0.5mpk) [mL/min/kg] | bioavailability ([2]; 30 mg/kg, PO-30mpk vs IV-0.5mpk) [%] | AUC(0-inf) ([2]; iv, 0.5 mg/kg, IV-0.5mpk) [µg·h/mL] | half-life ([2]; iv, 0.5 mg/kg, IV-0.5mpk) [h]
CC(C)(c1ccc(-c2ccc(OC3CCN(c4ccnc(N=S5(=O)CCCC5)n4)CC3)cc2)cc1)c1cc(Cl)c(OCCCl)c(C#N)c1 [Compound 65] | 1.18 | > 10 | > 10 | 4.3 | > 10 | > 10 | – | – | – | – | – | – | – | – | – | –
CC(C)(c1ccc(-c2ccc(OCc3ccnc(N4CC5(CCS5(=O)=O)C4)n3)cc2)cc1)c1cc(Cl)c(OCCCl)c(C#N)c1 [Compound 176] | 0.39 | > 10 | > 10 | > 10 | > 10 | > 10 | 407 | 21300 | 19.6 | 4 | – | – | – | – | – | –
CC(C)(c1ccc(-c2ccc(OCc3ccnc(N4CC5(CCS(=O)(=O)CC5)C4)n3)cc2)cc1)c1cc(Cl)c(OCCCl)c(C#N)c1 [Compound 177] | 0.21 | > 10 | > 10 | > 10 | > 10 | > 10 | 558 | 17800 | 33.7 | 6 | – | – | – | – | – | –
CC(C)(c1ccc(-c2cnc(OCc3ccnc(N=S4(=O)CCOCC4)n3)cn2)cc1)c1cc(Cl)c(OCCCl)c(C#N)c1 [Compound 206] | 0.41 | – | – | – | – | – | 236 | 32100 | 1.7 | 2 | 0.98 | – | – | – | – | –
CC(C)(c1ccc(-c2ccc(OCc3ccnc(N4CC(S(C)(=O)=O)C4)n3)nc2)cc1)c1cc(Cl)c(OCCCl)c(C#N)c1 [Compound 207] | 0.34 | > 10 | > 10 | > 10 | > 10 | > 10 | 446 | 33900 | 9.8 | 3 | – | 1620 | 1.1 | 97.7 | 7.61 | 16.1
CC(C)(c1ccc(-c2ccc(/C=C/c3cnc(P(C)(C)=O)nc3)cc2)cc1)c1cc(Cl)c(OCCCl)c(C#N)c1 [Compound 234] | 0.35 | – | – | – | – | – | 307 | 13400 | 11 | 7 | 0.58 | – | – | – | – | –
CC(C)(c1ccc(-c2ccc(OCc3ccnc(N4CC5(CCS(=N)(=O)CC5)C4)n3)cc2)cc1)c1cc(Cl)c(OCCCl)c(C#N)c1 [Compound 289] | 0.83 | > 10 | > 10 | > 10 | > 10 | > 10 | 240 | 10000 | 10.7 | 4 | – | – | – | – | – | –
CC(C)(c1ccc(-c2ccc(OCC3CC(CN4CC(S(C)(=O)=O)C4)C3)cc2)cc1)c1cc(Cl)c(OCCCl)c(C#N)c1 (stereo not drawn) [Compound 302] | 1.41 | > 10 | > 10 | > 10 | > 10 | > 10 | – | – | – | – | – | – | – | – | – | –
CC(C)(c1ccc(-c2cnc(OCc3ccnc(N4CC(S(N)(=O)=O)C4)n3)cn2)cc1)c1cc(Cl)c(OCCCl)c(C#N)c1 [Compound 378] | 0.17 | – | > 10 | > 10 | > 10 | > 10 | – | – | – | – | 0.061 | – | – | – | – | –
